Data published in ChEMBL document CHEMBL3751679, “DNA cleavage at the AP site via β-elimination mediated by the AP site-binding ligands” (Bioorg Med Chem, 2016).
Active and inactive are the calls of the source. The rule behind the calls is not given here.

Key:
[1] = species: Homo sapiens; experiment: Binding affinity to duplex DNA1(AP)/DNA2(A) (unknown origin) assessed as APE1 catalyzed beta-elimination product formation by gel electrophoresis
[2] = species: Homo sapiens; experiment: Binding affinity to duplex DNA1(AP)/DNA2(T) (unknown origin) assessed as APE1 catalyzed beta-elimination product formation by gel electrophoresis
[3] = species: Homo sapiens; experiment: Binding affinity to duplex DNA1(AP)/DNA2(C) (unknown origin) assessed as beta-elimination product formation at 10 uM pH 7 by gel electrophoresis
[4] = species: Homo sapiens; experiment: Binding affinity to duplex DNA1(AP)/DNA2(T) (unknown origin) assessed as beta-elimination product formation at 10 uM pH 7 by gel electrophoresis
[5] = species: Homo sapiens; experiment: Binding affinity to duplex DNA1(AP)/DNA2(G) (unknown origin) assessed as beta-elimination product formation at 10 uM pH 7 by gel electrophoresis
[6] = species: Homo sapiens; experiment: Binding affinity to duplex DNA1(AP)/DNA2(A) (unknown origin) assessed as beta-elimination product formation at 10 uM pH 7 by gel electrophoresis
[7] = species: Homo sapiens; experiment: Binding affinity to duplex DNA1(AP)/DNA2(G) (unknown origin) assessed as APE1 catalyzed beta-elimination product formation by gel electrophoresis
[8] = species: Homo sapiens; experiment: Binding affinity to duplex DNA1(AP)/DNA2(C) (unknown origin) assessed as beta-elimination product formation by HPLC analysis
[9] = species: Homo sapiens; experiment: Binding affinity to duplex DNA1(AP)/DNA2(C) (unknown origin) assessed as APE1 catalyzed beta-elimination product formation by gel electrophoresis
[10] = species: Homo sapiens; experiment: Binding affinity to duplex DNA1(AP)/DNA2(C) (unknown origin) assessed as beta-elimination product formation after 1 hr at pH 8 by gel electrophoresis

| Compound | Activity [3] | Activity [4] | Activity [5] | Activity [6] | Activity [9] | also measured |
| --- | --- | --- | --- | --- | --- | --- |
| Cc1cn(CCCNCCCNCCCN)c(=O)[nH]c1=O |  |  |  |  |  | Activity [1]: inactive |
| NCCCNCCCNCCCn1cnc2c(N)ncnc21 | Active | Active | Active | Active |  | Activity [2]: Active |
| NCCCNCCCNCCCn1ccc(N)nc1=O |  |  |  |  |  | Activity [7]: inactive |
| NCCCNCCCNCCCn1cnc2c(=O)[nH]c(N)nc21 | Active | inactive | inactive | inactive | Active | Activity [8]: Active; Activity [10]: Active |
| NCCCNCCCN |  |  |  |  | inactive |  |
